Assay results from US20160082015A1, “METHODS, COMPOSITIONS AND KITS FOR PROMOTING MOTOR NEURON SURVIVAL AND TREATING AND DIAGNOSING NEURODEGENERATIVE DISORDERS” (PRESIDENT AND FELLOWS OF HARVARD COLLEGE, priority 2013, published 2016).

How the values were obtained:
[1] = tested on: GSK-3-deficient MN cultures; test: MN survival using GSK-3 knockout lines; format: cell-based, mouse; conditions: trophic factors withdrawn
Description: In these cultures, approximately 70% of Isl+/MAP2+ cells were GFP+(i.e., MNs). However, after trophic factor withdrawal, because MNs die selectively under these conditions, only about 50% of Isl+/MAP2+ cells were GFP+MNs. This means that counting Isl+/MAP2+ cells could overestimate the amount of survival after trophic factor withdrawal by approximately 40%. When deprived of neurotrophins, 35% of wild-type Isl+/MAP2+ cells survived, while 44%, 57% and 54% of Isl+/MAP2+ cells in GSK-3[…]-KO, GSK-3[…]-KO and 3/4-KO cultures survived. Using the correction factor for overcounting surviving MNs, this would mean that wild-type MN survival would be approximately 25%, while the KO MNs would have 31%, 41% and 39% survival, respectively.
The inventors used another approach to address the issue of GSK-3 and survival. The inventors produced MNs from the following mouse ESC lines: GSK-3α^−/− (GSK-3α-KO), GSK-3^−/− (GSK-3β-KO), and GSK-3α^+/−/GSK-3β^−/− (3/4-KO). Note that ESCs that are GSK-3α^−/−/GSK-3β^−/− were not able to differentiate into neurons (Doble et al., 2007). Cell death was again initiated by withdrawal of trophic factors and the ability of kenpaullone to promote survival was evaluated. […] The inventors validated this staining method using MN cultures prepared from Hb9::GFP ESCs. In these cultures, approximately 70% of Isl^+/MAP2^+ cells were GFP^+ (i.e., MNs). […]

HB9::GFP MNs = test: Whole-cell voltage-clamp and current-clamp recordings; format: cell-based, mouse; conditions: −TF/+kenpaullone, 3 days
Method: Images show synapsin (yellow) and PSD95 (red) staining on a kenpaullone-treated MN. Arrows indicate examples of synapses on MNs. Data are presented as mean±SEM. Scale bar represents 50 μm. […] HB9::GFP MNs treated for 3 days in the absence of trophic factors (−TF/+kenpaullone) were compared to MNs that were grown in complete medium (+TF) in terms of functional sodium and potassium currents, action potentials, response to excitatory neurotransmitter (kainate, 100 μM), and response to inhibitory neurotransmitter (GABA, 100 μM).
Whole-cell voltage-clamp and current-clamp recordings were performed as described (Son et al., 2011).
To examine whether kenpaullone could maintain neuronal health during trophic factor withdrawal, the inventors also compared the electrophysiological properties of MNs grown in complete medium (+TF) with those of cells in trophic factor-deficient (−TF) medium with or without kenpaullone supplementation (FIGS. 4C and 10G). First of all, when the inventors attempted to record from cells grown in medium lacking both trophic factors and kenpaullone, the inventors were unable to obtain stable recordings despite a significant number of patch attempts. […] The inventors also recorded responses to excitatory neurotransmitters, such as kainate, and Inhibitory transmitters, such as GABA, in the two sets of MNs.

SMILES: O=C1Cc2c([nH]c3ccc(Br)cc23)-c2ccccc2N1 [Kenpaullone]
- MN survival in GSK-3-deficient cultures [1]: still active
- electrophysiological properties compared with MNs in complete medium (+TF) (HB9::GFP MNs): no significant difference
